US20070036793A1, “Methods for use of an lkb1/strad7mo25 complex” (priority 2003, published 2007)
Entries after “also recorded” stand apart in the source; their conditions may differ.

Legend:
[1] = target: T1, AMPK (Homo sapiens, UniProt Q13131); experiment: Activation and Thr-172 phosphorylation of endogenous AMPK in HeLa cells with or without stably expressed LKB1; type: cell-based; conditions: earlier unpublished results
T1 construct: Endogenous AMPK was immunoprecipitated from the cell extracts and assayed; endogenous in cells; host or cells: HeLa cells (control, or stably expressing wild type or kinase-dead LKB1)

[2] = target: T1, AMPK; experiment: as above; type: cell-based; conditions: 2 mM AICA riboside or 10 mM phenformin, 60 min
Procedure: (§1) FIG. 18: Restoration of the ability of AMPK to be activated by AICA riboside and phenformin in HeLa cells by expression of LKB1. Control HeLa cells (lanes 1, 2, 3), HeLa cells expressing wild type (WT) LKB1 (lanes 4, 5, 6) and kinase dead (D194A, KD) mutant LKB1 (lanes 7, 8, 9) were either left unstimulated or treated with 2 mM AICA riboside or 10 mM phenformin for 60 min and lysed. (A) Endogenous AMPK was immunoprecipitated from the cell extracts and assayed. (B) The cell lysates was immunoblotted with antibodies recognising AMPKα1 phosphorylated at Thr172 or total AMPKα1; the results were analysed using the LI-COR IR Odyssesy™ imager as described under Materials and Methods, and are expressed as a ratio of the two signals. (C) The cell lysates was analysed by Western blotting and the membranes probed with antibodies recognising ACC phosphorylated at Ser-79, or streptavidin to determine total […]. The results were analysed using the LI-COR IR imager as for (B).
AMPK [14]and AMPKK [34] were assayed, and units defined, as described previously. Rapid lysis of cells for AMPK assays was as described previously. Assays were carried out in triplicate and results are expressed as mean ± standard deviation.
To analyse phosphorylation of ACC, samples were analysed by SDS-PAGE, transferred to nitrocellulose (BioRad) and incubated in Odyssey™ Blocking buffer containing 0.2% Tween-20 for 1 h. Anti-pACC antibody (1.46 μg/ml in blocking buffer) was then added and left shaking for 1 h. The membranes were washed 6×5 min with TBS (10 mM Tris-HCl, pH 7.4, 0.5M NaCl) plus Tween-20 (0.2%). The membranes were immersed in blocking buffer containing 0.2% Tween-20 and 1 μg/ml anti-sheep IgG conjugated to JR dye 680 (Molecular Probes, Leiden, The Netherlands) and 1 μg/ml streptavidin conjugated to IR Dye 800 (Rockland Inc., Philadelphia, Pa.) and left shaking for 1 h, protected from light. The membranes were then washed 6×5 min using TBS-Tween (0.2%) and 1×5 min in PBS. The membranes were scanned in two different channels using the Odyssey™ IR imager, the results quantified using Odyssey™ software and expressed as a ratio of the signal obtained with the pACC antibody to that obtained with streptavidin. Analysis of phosphorylation of GST-α1 catalytic domain was similar except that the 4-12% Bis-Tris gels were used, and the membranes were simultaneously probed for 1 h with the sheep anti-pT172 and anti-AMPKα1-catalytic domain antibodies, directly labelled with the IR dye 680 and IR Dye 800 respectively, according to manufacturers' instructions.

[3] = tested on: acetyl-CoA carboxylase (ACC); experiment: Phosphorylation of acetyl-CoA carboxylase at Ser-79 in HeLa cells expressing LKB1; type: cell-based, human; conditions: HeLa cells stably expressing wild type LKB1; 2 mM AICA riboside or 10 mM phenformin, 60 min
Procedure: as §1
To analyse phosphorylation of ACC, samples were analysed by SDS-PAGE, transferred to nitrocellulose (BioRad) and incubated in Odyssey™ Blocking buffer containing 0.2% Tween-20 for 1 h. […] The membranes were scanned in two different channels using the Odyssey™ IR imager, the results quantified using Odyssey™ software and expressed as a ratio of the signal obtained with the pACC antibody to that obtained with streptavidin. […]

[4] = tested on: AMPK; experiment: AMPK activation by drugs in other cell types; type: cell-based
[5] = tested on: AMPK-related kinases (NUAK2, QIK, QSK, SIK, MARK1, MARK2/3, MARK4); experiment: Activity of endogenous AMPK-related kinases immunoprecipitated from HeLa cells after phenformin; type: cell-based, human; conditions: HeLa cells (control, wild type or kinase inactive LKB1), 10 mM phenformin, 1 h
Procedure: FIG. 29. Activity of AMPK-related kinases In HeLa cells. […] AMPKα1 and AMPK-related kinases were immunoprecipitated from the cell lysates, and in vitro kinase activity towards the AMARA peptide was measured as described in Materials and Methods (Example 4). To confirm equal expression of the kinases in each sample, cell lysates (AMPKα1, MARK2/3 and MARK4) or immunoprecipitated proteins (NUAK2, QIK, QSK, SIK and MARK1) were subjected to SDS-PAGE and western immunoblot analysis. All AMPK-related kinases migrated with the expected molecular mass. In the case of AMPKα1, cell lysates were immunoblotted with a pThr172 antibody (P-AMPK), that recognises the phosphorylated T-loop. Results shown are average + SD of 2-4 assays and are representative of at least two independent experiments.
Cell culture, stimulation and cell lysis. […] Protein concentrations were determined by the Bradford method with bovine serum albumin as the standard (Bradford, 1976).
0.1-1 mg of Hela or MEF lysate protein was incubated at 4° C. for 1 h on a shaking platform with 5 μg of the corresponding antibody, which had been previously conjugated to 5 μl of protein G-Sepharose. The immunoprecipitates were washed twice with 1 ml of Lysis Buffer containing 0.5 M NaCl, and twice with 1 ml of Buffer A. Phosphotransferase activity towards the AMARA peptide was then measured in a total assay volume of 50 μl as described above.

[6] = HeLa cells stably expressing wild type LKB1
[7] = control HeLa cells not expressing LKB1

T1 sequence (Q13131 whole entry): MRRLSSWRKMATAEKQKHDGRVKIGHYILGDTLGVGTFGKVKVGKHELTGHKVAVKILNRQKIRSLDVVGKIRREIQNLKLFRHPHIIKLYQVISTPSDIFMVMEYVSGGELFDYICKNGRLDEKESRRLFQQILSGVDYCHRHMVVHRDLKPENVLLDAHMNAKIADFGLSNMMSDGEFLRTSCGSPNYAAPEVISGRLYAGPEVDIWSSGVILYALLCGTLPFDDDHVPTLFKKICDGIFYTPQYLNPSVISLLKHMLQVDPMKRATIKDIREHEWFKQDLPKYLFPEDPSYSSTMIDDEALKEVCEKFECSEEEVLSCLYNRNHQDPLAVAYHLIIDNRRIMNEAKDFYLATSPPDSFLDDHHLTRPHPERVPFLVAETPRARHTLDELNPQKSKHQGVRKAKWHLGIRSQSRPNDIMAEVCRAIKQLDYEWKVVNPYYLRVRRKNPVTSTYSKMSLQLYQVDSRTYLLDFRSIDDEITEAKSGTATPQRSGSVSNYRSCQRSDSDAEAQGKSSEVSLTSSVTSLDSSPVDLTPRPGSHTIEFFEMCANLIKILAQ
T1 sequence (Q9Y478 2-270 partner limits assumed): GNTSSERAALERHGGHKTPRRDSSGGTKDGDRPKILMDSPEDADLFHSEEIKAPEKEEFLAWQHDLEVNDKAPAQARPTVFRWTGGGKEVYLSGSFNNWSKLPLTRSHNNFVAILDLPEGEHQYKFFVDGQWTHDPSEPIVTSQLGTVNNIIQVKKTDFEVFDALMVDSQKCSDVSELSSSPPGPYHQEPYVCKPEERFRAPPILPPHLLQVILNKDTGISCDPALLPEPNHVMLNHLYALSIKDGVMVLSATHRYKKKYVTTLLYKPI
T1 sequence (P54619 whole entry partner): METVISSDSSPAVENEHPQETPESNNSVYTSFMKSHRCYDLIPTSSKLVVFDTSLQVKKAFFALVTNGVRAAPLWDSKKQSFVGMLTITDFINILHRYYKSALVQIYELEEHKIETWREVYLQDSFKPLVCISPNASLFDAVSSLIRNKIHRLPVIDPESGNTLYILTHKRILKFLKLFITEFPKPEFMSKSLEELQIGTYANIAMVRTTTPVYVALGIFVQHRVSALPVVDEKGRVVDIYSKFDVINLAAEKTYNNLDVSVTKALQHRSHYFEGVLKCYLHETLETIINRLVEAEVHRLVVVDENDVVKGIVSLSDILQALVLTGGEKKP

SMILES | activation of AMPK [1] | activation of AMPK [2, 6] | phosphorylation of Thr-172 on the AMPKα subunit [2, 6] | activation of AMPK [2, 7] | phosphorylation of downstream target ACC (Ser-79) [3] | activation of AMPK compared with metformin [4] | activity of AMPK-related kinases [5]
NC(=O)c1ncn([C@@H]2O[C@H](CO)[C@@H](O)[C@H]2O)c1N [AICA riboside, 5-aminoimidazole-4-carboxamide (AICA) riboside] | not activated | robust activation | restored | neither AICA riboside nor phenformin activated AMPK | larger effect than phenformin; also recorded: restored | – | –
[H]/N=C(/N)N/C(=N/[H])NCCc1ccccc1 [phenformin] | – | robust activation; also recorded: larger activation of AMPK | restored | neither AICA riboside nor phenformin activated AMPK | restored | more rapidly and more potently than metformin | none of the AMPK-related kinases were significantly activated
